The values below are quoted from earlier work in patent US6638906B1, “Amphiphilic polymers and polypeptide conjugates comprising same” (Nobex Corporation, priority 1999, dated 2003).

For data set [1], the system named is pancreatic protein output. The settings on record: infused into the duodenum of rats.
Data set [2] has as its system STC-1 cells.
The subject of data set [3] is native CCK cells. To be noted: versus vehicle/basal secretion.
Data set [4] concerns food intake. To be noted: infused into the duodenum of rats with trypsin inhibitors.
For data set [5], the system named is CCK release. The settings on record: relative to LCRF.

For “luminal cholecystokinin releasing factor [Native LCRF]”, in data set [1], the “dose-response of pancreatic protein output” value is “biphasic dose-response of curve of pancreatic protein output is observed, with higher doses of LCRF leading to decreased pancreatic protein output”. Besides, the “increase in CCK secretion” value in data set [2] and in data set [3] was ~300% throughout. The “effect on food intake” value in data set [4] is given as “causes a reduction of food intake”.

B1: diazepan binding inhibitor: peptide secreted into the intestines found to stimulate CCK release (protein, UniProt P07108 2-87, looked up)
Acyl-CoA-binding protein: SQAEFEKAAEEVRHLKTKPSDEEMLFIYGHYKQATVGDINTERPGMLDFTGKAKWDAWNELKGTSKEDAMKAYINKVEELKKKYGI
Turning to B1, the “potency for stimulating CCK release, fold less than LCRF” value in data set [5] is 100-1,000 fold.

B2: monitor peptide: peptide secreted into the intestines that controls CCK release by positive feedback regulation (protein, UniProt P09655 19-79, looked up)
Serine protease inhibitor …: GNPPAEVNGKTPNCPKQIMGCPRIYDPVCGTNGITYPSECSLCFENRKFGTSIHIQRRGTC
For the molecule B2, the “potency for stimulating CCK release, fold less than LCRF” value in data set [5] is on record as 6 fold.
